{"source": "patent US20130150399A1", "about": "“INHIBITORS OF THE UNFOLDED PROTEIN RESPONSE AND METHODS FOR THEIR USE” (The Board of Trustees of the Leland Stanford Junior …, priority 2006, published 2013)", "test_system": "IRE1α", "assay": "Western immunoblot of total IRE1α, HT1080 cells", "assay_type": "cell-based, human", "conditions": "2.5 μM, 16 hours", "protocol": "Cells (2×10^6) were cultured in 10-cm dishes, collected using a cell scraper at 4° C., and lysed by addition of 150 μl cell lysis buffer [50 mM Tris pH 7.4, 150 mM NaCl, 10% glycerol, 0.5% Triton X-100. 0.5% NP-40, 2 mM Na3VO4, 20 mM beta-glycerophosphate, 10 mM NaF, 1 mM DTT, 1 mM PMSF). Lysates were centrifuged for 5 min at 10,000×g, and proteins (˜40 μg) were resolved by SDS-PAGE followed by semi-dry transfer to nitrocellulose membranes. Membranes were blocked in TBS-5% milk supplemented with 0.1% Tween-20. The blots were then probed overnight with relevant antibodies, washed, and incubated for 2 hours with species-specific secondary antibodies conjugated to horseradish peroxidase. After washing in block solution, immunoreactive material was detected by enhanced chemiluminescence (SuperSignal West Dura Extended, Pierce, Inc., Rockville, Ill.).\nHT1080 cells were exposed to DMSO vehicle (lane 1), irestatin 9389 (2.5 μM; lane 2) for 16 hours or Tm (5 μg/ml; lane 3) for 8 hours. Following treatments, cells were harvested, lysed, and analyzed by immunoblotting using anti-Grp78 antibody (top) or anti-actin (bottom) as a loading control. […] Cell lysates were analyzed by Western immunoblotting using anti-IRE1α (bottom) or anti-phospho-IRE1α antibodies (top). […] Lysates were analyzed by Western blot using antisera specific for phospho-JNK1 (top) or total JNK1 (bottom). […]"}
{"smiles": "Cc1csc(NC(=O)CSc2nc3c(c(C(F)(F)F)c2C#N)CCC3)n1", "note": "[Compound 9389]", "values": [{"measurement": "total level of IRE1α", "result": "no significant changes in the total level of IRE1α"}]}
